Structures can show the parent of a compound that is named as a salt.
What was measured:
[1] = target: CDK6/cyclin D1 (Homo sapiens, UniProt Q00534); assay: Biochemical kinase inhibition test, CDK6/cyclin D1 (similar method); conditions: for IC50: three-fold serial dilution from 10 μM, 10 μM ATP, read-out: CDK6/D1 (nM), enzyme inhibitory activity IC50; for selectivity for CDK6/cyclin D1 relative to CDK4/cyclin D1 (enzyme inhibitory activity): CDK6/cyclin D1 versus CDK4/cyclin D1
Protocol: Potency determination of biochemical kinase inhibition test. Kinase activity test and IC50 determination. Firstly, 10 ng of recombinant CDK4/Cyclin D1 (Life Technologies PV4204) was diluted in kinase buffer (20 mM Tris pH 7.5, 10 mM MgCl2, 0.01% NP-40, 2 mM DTT), and was incubated with inhibitors at the indicated concentration at room temperature for 30 minutes. The kinase reaction was initiated by adding […] (1.5 μM) of recombinant retinoblastoma protein, 5 μM ATP and 10μ Ci γ-32P-ATP. The reaction was incubated at 30° C. for 20 minutes, and was terminated by adding 2× Laemmli sample buffer, heated at 95° C. for three minutes, and the resulting solution was dissolved with 12% acrylamide SDS-PAGE and autoradiographed. A densitometer (Bio-Rad) was used to quantify the corresponding phosphorylated substrate protein bands. The resulting density values were plotted as a function of the log drug concentration using Prism 4 Graphpad software. IC50 values were determined by plotting a non-linear regression curve with a variable slope.
The inhibitory activity of the compounds disclosed herein against CDK6/cyclin D1 was tested by a similar method.
The compounds were tested in a three-fold serial dilution from the starting concentration of 10 μM, over 10-fold of IC50. The control compound, staurosporine, was tested in a four-fold serial dilution from the starting concentration of 20 μM, over 10-fold of IC50. These reactions took place in the presence of 10 μM ATP.

[2] = target: T1, recombinant CDK4/Cyclin D1 (Homo sapiens, UniProt P11802); assay: Biochemical kinase inhibition test, CDK4/Cyclin D1 (32P-ATP, retinoblastoma protein substrate); conditions: three-fold serial dilution from 10 μM; 10 μM ATP; read-out: CDK4/D1 (nM), enzyme inhibitory activity IC50
T1 construct: purchased Life Technologies PV4204
T1 sequence (P11802 whole entry): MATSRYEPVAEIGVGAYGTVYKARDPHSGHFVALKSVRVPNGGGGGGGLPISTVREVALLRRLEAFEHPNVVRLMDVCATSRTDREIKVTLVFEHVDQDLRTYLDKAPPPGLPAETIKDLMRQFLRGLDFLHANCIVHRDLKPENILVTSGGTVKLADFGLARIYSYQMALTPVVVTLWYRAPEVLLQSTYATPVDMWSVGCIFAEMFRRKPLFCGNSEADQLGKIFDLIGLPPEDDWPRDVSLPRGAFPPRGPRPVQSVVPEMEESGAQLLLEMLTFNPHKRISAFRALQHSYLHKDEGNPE
T1 sequence (P24385 whole entry partner): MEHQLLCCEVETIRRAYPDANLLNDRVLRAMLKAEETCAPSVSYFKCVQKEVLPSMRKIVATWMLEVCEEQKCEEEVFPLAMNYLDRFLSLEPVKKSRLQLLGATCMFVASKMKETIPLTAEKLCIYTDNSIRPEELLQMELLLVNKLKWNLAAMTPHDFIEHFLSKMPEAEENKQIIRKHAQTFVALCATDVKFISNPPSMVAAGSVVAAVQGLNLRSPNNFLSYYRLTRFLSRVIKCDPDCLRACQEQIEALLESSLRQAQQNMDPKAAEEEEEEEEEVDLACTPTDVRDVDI

Sequence of CDK6/cyclin D1 (Q00534 whole entry, species assumed): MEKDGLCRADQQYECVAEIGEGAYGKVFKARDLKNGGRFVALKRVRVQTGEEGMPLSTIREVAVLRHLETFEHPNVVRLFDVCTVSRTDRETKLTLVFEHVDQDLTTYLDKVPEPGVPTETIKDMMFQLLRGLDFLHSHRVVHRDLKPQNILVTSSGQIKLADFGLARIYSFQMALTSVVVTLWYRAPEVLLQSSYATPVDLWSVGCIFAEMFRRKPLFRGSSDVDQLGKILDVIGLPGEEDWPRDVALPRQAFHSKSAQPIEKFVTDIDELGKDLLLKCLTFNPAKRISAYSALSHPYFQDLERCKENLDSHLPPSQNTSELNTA
Sequence of CDK6/cyclin D1 (P24385 whole entry partner, species assumed): as the sequence (P24385 whole entry partner) above

Row | SMILES | IC50 [1] [nM] | IC50 [2] [nM] | selectivity for CDK6/cyclin D1 relative to CDK4/cyclin D1 (enzyme inhibitory activity) [1]
1 | CC(C)n1ncc2ccc3cnc(Nc4ccc(N5CCNCC5)cn4)nc3c21 [Compound I-1, 1-isopropyl-N-(5-(piperazin-1-yl)pyridin-2-yl)-1H-pyrazolo[4,3-h]quinazolin-8-amine hydrochloride] | < 1 | < 1 | –
2 | Cc1nc(Nc2ncc3ccc4cnn(C(C)C)c4c3n2)ccc1N1CCNCC1 [Compound I-2] | 1 to 5 | 1 to 5 | –
3 | Cc1cc(Nc2ncc3ccc4cnn(C(C)C)c4c3n2)ncc1N1CCNCC1 [Compound I-3] | 10 to 20 | 5 to 10 | –
4 | CC(C)n1ncc2ccc3cnc(Nc4ccc(N5CCN(C)CC5)cn4)nc3c21 [Compound I-4] | 1 to 5 | 1 to 5 | –
5 | Cc1cc(Nc2ncc3ccc4cnn(C(C)C)c4c3n2)ncc1N1CCN(C)CC1 [Compound I-5] | 10 to 20 | 5 to 10 | –
6 | Cc1nc(Nc2ncc3ccc4cnn(C(C)C)c4c3n2)ccc1N1CCN(C)CC1 [Compound I-6] | < 1 | 1 to 5 | –
7 | CCN1CCN(c2ccc(Nc3ncc4ccc5cnn(C(C)C)c5c4n3)nc2)CC1 [Compound I-7] | 1 to 5 | 1 to 5 | –
8 | CCN1CCN(c2cnc(Nc3ncc4ccc5cnn(C(C)C)c5c4n3)cc2C)CC1 [Compound I-8] | 10 to 20 | 5 to 10 | –
9 | CCN1CCN(c2ccc(Nc3ncc4ccc5cnn(C(C)C)c5c4n3)nc2C)CC1 [Compound I-9] | < 1 | 1 to 5 | –
10 | CC(C)n1ncc2ccc3cnc(Nc4cc(F)c(N5CCNCC5)cn4)nc3c21 [Compound I-10] | 10 to 20 | 5 to 10 | –
11 | CC(C)n1ncc2ccc3cnc(Nc4ccc(N5CCNCC5)c(F)n4)nc3c21 [Compound I-11] | 5 to 10 | 1 to 5 | –
12 | CC(C)n1ncc2ccc3cnc(Nc4ccc(N5CCN[C@@H](C)C5)cn4)nc3c21 [Compound I-12] | 5 to 10 | 5 to 10 | –
13 | CC(C)n1ncc2ccc3cnc(Nc4ccc(N5C[C@@H](C)N[C@@H](C)C5)cn4)nc3c21 [Compound I-13] | 5 to 10 | 5 to 10 | –
14 | CC(C)n1ncc2ccc3cnc(Nc4ccc(N5CCNC(C)(C)C5)cn4)nc3c21 [Compound I-14] | 10 to 20 | 10 to 20 | –
15 | CC(C)n1ncc2ccc3cnc(Nc4ccc(N5CCOCC5)cn4)nc3c21 [Compound I-15] | 1 to 5 | 1 to 5 | –
16 | CC1CN(c2ccc(Nc3ncc4ccc5cnn(C(C)C)c5c4n3)nc2)CCO1 (stereo not drawn) [Compound I-16] | 5 to 10 | 5 to 10 | –
17 | CC(C)n1ncc2ccc3cnc(Nc4ccc(N5C[C@@H](C)O[C@@H](C)C5)cn4)nc3c21 [Compound I-17] | 5 to 10 | 5 to 10 | –
18 | Cc1nc(Nc2ncc3ccc4cnn(C(C)C)c4c3n2)ccc1N1CCOCC1 [Compound I-18] | < 1 | 1 to 5 | –
19 | Cc1cc(Nc2ncc3ccc4cnn(C(C)C)c4c3n2)ncc1N1CCOCC1 [Compound I-19] | 10 to 20 | 20 to 50 | –

Row | SMILES | IC50 [1] [nM] | IC50 [2] [nM] | selectivity for CDK6/cyclin D1 relative to CDK4/cyclin D1 (enzyme inhibitory activity) [1]
20 | Cc1cc(Nc2ncc3ccc4cnn(C(C)C)c4c3n2)ncc1N1CCOC(C)C1 (stereo not drawn) [Compound I-20] | 20 to 50 | 20 to 50 | –
21 | Cc1nc(Nc2ncc3ccc4cnn(C(C)C)c4c3n2)ccc1N1CCOC(C)C1 (stereo not drawn) [Compound I-21] | 10 to 20 | 5 to 10 | –
22 | CC(C)n1ncc2ccc3cnc(Nc4ccc(N5CCCNCC5)cn4)nc3c21 [Compound I-22] | 10 to 20 | 10 to 20 | –
23 | CC(C)n1ncc2ccc3cnc(Nc4ccc(N5CCCCC5)cn4)nc3c21 [Compound I-23] | 50 to 100 | 50 to 100 | –
24 | CC(C)n1ncc2ccc3cnc(Nc4ccc(N5CCC(N(C)C)CC5)cn4)nc3c21 [Compound I-24] | 20 to 50 | 20 to 50 | –
25 | CC(C)n1ncc2ccc3cnc(Nc4ccc(N5CCC6(CC5)CNC6)cn4)nc3c21 [Compound I-25] | 1 to 5 | 1 to 5 | –
26 | CC(C)n1ncc2ccc3cnc(Nc4ccc(N5CC6(CCNCC6)C5)cn4)nc3c21 [Compound I-26] | 1 to 5 | 1 to 5 | –
27 | CC(C)n1ncc2ccc3cnc(Nc4ccc(N5CCC6(CCNCC6)C5)cn4)nc3c21 [Compound I-27] | 20 to 50 | 20 to 50 | –
28 | CC(C)n1ncc2ccc3cnc(Nc4ccc(N5CCS(=O)(=O)CC5)cn4)nc3c21 [Compound I-28] | 10 to 20 | 10 to 20 | –
29 | Cc1cc(Nc2ncc3ccc4cnn(C(C)C)c4c3n2)ncc1N1CCS(=O)(=O)CC1 [Compound I-29] | 20 to 50 | 20 to 50 | –
30 | Cc1nc(Nc2ncc3ccc4cnn(C(C)C)c4c3n2)ccc1N1CCS(=O)(=O)CC1 [Compound I-30] | 10 to 20 | 10 to 20 | –
31 | CC(C)n1ncc2ccc3cnc(Nc4ccc(C(=O)N5CCC(N6CCN(C)CC6)CC5)cn4)nc3c21 [Compound I-31] | 50 to 100 | 50 to 100 | –
32 | COc1ccc2cc(Nc3ncc4ccc5cnn(C(C)C)c5c4n3)ccc2n1 [Compound I-32] | 20 to 50 | 20 to 50 | –
33 | CC(C)n1ncc2ccc3cnc(N4CCC[C@@H]4c4cccc(F)c4)nc3c21 [Compound I-33] | 50 to 100 | 50 to 100 | –
34 | CC(C)n1ncc2ccc3cnc(N4CCC[C@@H]4c4cc(F)ccc4F)nc3c21 [Compound I-34] | 50 to 100 | 50 to 100 | –
35 | c1cc(Nc2ncc3ccc4cnn(C5CCCC5)c4c3n2)ncc1N1CCNCC1 [Compound I-35] | 1 to 5 | 1 to 5 | –
36 | Cc1cc(Nc2ncc3ccc4cnn(C5CCCC5)c4c3n2)ncc1N1CCNCC1 [Compound I-36] | 10 to 20 | 10 to 20 | –
37 | Cc1nc(Nc2ncc3ccc4cnn(C5CCCC5)c4c3n2)ccc1N1CCNCC1 [Compound I-37] | < 1 | 1 to 5 | –
38 | CN1CCN(c2ccc(Nc3ncc4ccc5cnn(C6CCCC6)c5c4n3)nc2)CC1 [Compound I-38] | 5 to 10 | 1 to 5 | –

Next, values leading:

Row | IC50 [1] [nM] | IC50 [2] [nM] | selectivity for CDK6/cyclin D1 relative to CDK4/cyclin D1 (enzyme inhibitory activity) [1] | SMILES
39 | 1 to 5 | < 1 | – | CCN1CCN(c2ccc(Nc3ncc4ccc5cnn(C6CCCC6)c5c4n3)nc2)CC1 [Compound I-39]
40 | 1 to 5 | 1 to 5 | – | CCN1CCN(c2ccc(Nc3ncc4ccc5cnn(C6CCCC6)c5c4n3)nc2C)CC1 [Compound I-40]
41 | 10 to 20 | 10 to 20 | – | CCN1CCN(c2cnc(Nc3ncc4ccc5cnn(C6CCCC6)c5c4n3)cc2C)CC1 [Compound I-41]
42 | 1 to 5 | 1 to 5 | – | c1cc(Nc2ncc3ccc4cnn(C5CCCC5)c4c3n2)ncc1N1CCOCC1 [Compound I-42]
43 | 1 to 5 | 1 to 5 | – | Cc1nc(Nc2ncc3ccc4cnn(C5CCCC5)c4c3n2)ccc1N1CCOCC1 [Compound I-43]
44 | 10 to 20 | 10 to 20 | – | Cc1cc(Nc2ncc3ccc4cnn(C5CCCC5)c4c3n2)ncc1N1CCOCC1 [Compound I-44]
45 | 5 to 10 | 10 to 20 | about 3 times | CCn1ncc2ccc3cnc(Nc4ccc(N5CCNCC5)cn4)nc3c21.Cl [Compound I-45]
46 | 10 to 20 | 20 to 50 | about 2 times | CCn1ncc2ccc3cnc(Nc4cc(F)c(N5CCNCC5)cn4)nc3c21.Cl [Compound I-46]
47 | 5 to 10 | 10 to 20 | about 2 times | CCn1ncc2ccc3cnc(Nc4ccc(N5CCNCC5)c(F)n4)nc3c21.Cl [Compound I-47]
48 | 5 to 10 | 10 to 20 | about 3 times | CCN1CCN(c2ccc(Nc3ncc4ccc5cnn(CC)c5c4n3)nc2)CC1 [Compound I-48]
49 | 10 to 20 | 20 to 50 | about 2 times | CCN1CCN(c2cnc(Nc3ncc4ccc5cnn(CC)c5c4n3)cc2C)CC1 [Compound I-49]
50 | 5 to 10 | 10 to 20 | about 3 times | CCn1ncc2ccc3cnc(Nc4ccc(N5CCOCC5)cn4)nc3c21 [Compound I-50]
51 | 10 to 20 | 20 to 50 | about 2 times | CCn1ncc2ccc3cnc(Nc4cc(C)c(N5CCN(C)CC5)cn4)nc3c21 [Compound I-51]
52 | 10 to 20 | 10 to 20 | – | CCn1ncc2ccc3cnc(Nc4cc(C)c(N5CCOCC5)cn4)nc3c21 [Compound I-52]
53 | 5 to 10 | 10 to 20 | about 2 times | Cl.c1cc(Nc2ncc3ccc4cnn(C5CC5)c4c3n2)ncc1N1CCNCC1 [Compound I-53]
54 | 10 to 20 | 20 to 50 | about 2 times | Cl.Fc1cc(Nc2ncc3ccc4cnn(C5CC5)c4c3n2)ncc1N1CCNCC1 [Compound I-54]
55 | 10 to 20 | 20 to 50 | about 2 times | Cc1cc(Nc2ncc3ccc4cnn(C5CC5)c4c3n2)ncc1N1CCN(C)CC1 [Compound I-55]

Source: patent US11993604B2, “Substituted pyrazolo[4,3-H]quinazolines as protein kinase inhibitors” (SHENGKE PHARMACEUTICALS (JIANGSU) LTD., priority 2017, dated 2024)
